“And” between values parts separate entries of the source, which are not always exact repeats. Equal entries are not always repeated.
Assays:
[1] = tested on: AKR1C protein in Caco-2 cells; assay: AKR1C protein in Caco-2 cells (Western blotting); assay type: cell-based, human; details: 24 hrs
Protocol: (§1) Method: AREc32 cells were seeded out in 96 well plates and treated with DMSO (control), tBHQ (50 μM), tBHQ+BTB09463 (5 μM) or tBHQ+Retinoic acid (1 μM). After 24 hours incubation, cells were washed and lysed before measuring luciferase activity. BTB09463 is 1-{4-[(3,4-dichlorobenzyl)oxy]phenyl}ethan-1-one. […] Method: AREc32 cells were seeded out in 96 well plates and dosed with BTB09463 (2.5, 5 or 10 μM) for 0, 24 or 48 hrs before treatment with tBHQ (50 μM). 24 hours after the addition of tBHQ, cells were washed and lysed before measuring luciferase activity. […] Method: ARE c32 cells were seeded out in 96 well plates and treated with DMSO (control), tBHQ (50 μM), tBHQ+retinoid (0.25, 0.5 and 1 μM). After 24 hours incubation, cells were washed and lysed before measuring luciferase activity. […] See FIG. 16 Method: A. Caco-2 cells were treated with the known ARE-gene inducer sulforaphane (5 μM), either alone or concomitantly with BTB09463 (5 μM) or Retinoic acid (1 μM). After 24 hrs, cell lysates were prepared and Western blotting performed to measure the levels of AKR1C protein. B. MCF7 cells were treated with sulforaphane (5 μM), either alone or concomitantly with BTB09463 (5 μM). After 24 hrs, cell lysates were prepared and Western blots performed to detect the levels of AKR1C and NQO1; GAPDH was used as a loading control in MCF7 cells. […] Method: Caco-2 cells were treated with DMSO (control), BTB09463 (5 μM), sulforaphane (5 μM) or a combination of sulforaphane plus BTB09463. After 24 hrs treatment, cells were harvested and RNA isolated. cDNA for each sample was generated by reverse transcription and subsequently used in real time PCR analysis of gene transcription (TaqMan analysis) for the ARE-driven genes AKR1C1 and NQO1. Data was normalised to the internal control 18S RNA and the relative levels of AKR1C1 and NQO1 calculated using the comparative CT method. […] Method: MCF7 cells were treated with the known ARE-gene inducer sulforaphane (5 μM), either alone or with various retinoids (0.5 μM). After 24 hrs, cell lysates were prepared and Western blots were performed to detect the levels of AKR1C protein present. […] See FIG. 19 Method: ARE reporter cell line AREc23 was seeded into 96 well plates and treated with a previously determined non-toxic concentration of cytotoxic drug. After 24 hours incubation, cells were washed and lysed before measuring luciferase activity. […] See FIG. 20a Method: ARE reporter cell line AREc23 was seeded into 96 well plates and treated with DMSO (control), Carmustine (100 μM), Carmustine+BTB09463 (5 μM) or Carmustine+Retinoic acid (5 μM) After 24 hours incubation, cells were washed and lysed before measuring luciferase activity. […] After 24 hours incubation, cells were washed and lysed before measuring luciferase activity. […]

A549 cells = assay: Cytotoxicity in A549 cells (ATP levels, 72 h); assay type: cell-based, human; details: Homo sapiens, single agent
[2] = tested on: AKR1C protein in LS174 cells; assay: AKR1C protein in LS174 cells; assay type: cell-based, human; details: data not shown
MCF7 cells = assay: cells; assay type: cell-based; details: Homo sapiens, single agent
[3] = tested on: AKR1C1 and NQO1 mRNA in Caco-2 cells; assay: AKR1C1 and NQO1 mRNA in Caco-2 cells (TaqMan); assay type: cell-based, human; details: sulforaphane 5 μM + BTB09463 5 μM, 24 hrs
Protocol: as §1

[4] = tested on: AKR1C1, NQO1, GCLC, GCLM mRNA in A549 cells; assay: Constitutive mRNA of ARE-driven genes in A549 cells (Taqman); assay type: cell-based, human; details: 24 hrs
[5] = tested on: ARE-driven luciferase activity in AREc32 cells; assay: Antagonism of induced ARE-driven luciferase activity in AREc32 cells; assay type: cell-based, human
[6] = tested on: AKR1C and NQO1 protein in MCF7 cells; assay: AKR1C and NQO1 protein in MCF7 cells (Western blots); assay type: cell-based, human; details: 24 hrs
Protocol: Method: AREc32 cells were seeded out in 96 well plates and treated with DMSO (control), tBHQ (50 μM), tBHQ+BTB09463 (5 μM) or tBHQ+Retinoic acid (1 μM). After 24 hours incubation, cells were washed and lysed before measuring luciferase activity. BTB09463 is 1-{4-[(3,4-dichlorobenzyl)oxy]phenyl}ethan-1-one. […] Method: AREc32 cells were seeded out in 96 well plates and dosed with BTB09463 (2.5, 5 or 10 μM) for 0, 24 or 48 hrs before treatment with tBHQ (50 μM). 24 hours after the addition of tBHQ, cells were washed and lysed before measuring luciferase activity. […] Method: ARE c32 cells were seeded out in 96 well plates and treated with DMSO (control), tBHQ (50 μM), tBHQ+retinoid (0.25, 0.5 and 1 μM). After 24 hours incubation, cells were washed and lysed before measuring luciferase activity. […] See FIG. 16 Method: A. Caco-2 cells were treated with the known ARE-gene inducer sulforaphane (5 μM), either alone or concomitantly with BTB09463 (5 μM) or Retinoic acid (1 μM). After 24 hrs, cell lysates were prepared and Western blotting performed to measure the levels of AKR1C protein. B. MCF7 cells were treated with sulforaphane (5 μM), either alone or concomitantly with BTB09463 (5 μM). After 24 hrs, cell lysates were prepared and Western blots performed to detect the levels of AKR1C and NQO1; GAPDH was used as a loading control in MCF7 cells. […] Method: Caco-2 cells were treated with DMSO (control), BTB09463 (5 μM), sulforaphane (5 μM) or a combination of sulforaphane plus BTB09463. After 24 hrs treatment, cells were harvested and RNA isolated. cDNA for each sample was generated by reverse transcription and subsequently used in real time PCR analysis of gene transcription (TaqMan analysis) for the ARE-driven genes AKR1C1 and NQO1. Data was normalised to the internal control 18S RNA and the relative levels of AKR1C1 and NQO1 calculated using the comparative CT method. […] Method: MCF7 cells were treated with the known ARE-gene inducer sulforaphane (5 μM), either alone or with various retinoids (0.5 μM). After 24 hrs, cell lysates were prepared and Western blots were performed to detect the levels of AKR1C protein present. […] See FIG. 19 Method: ARE reporter cell line AREc23 was seeded into 96 well plates and treated with a previously determined non-toxic concentration of cytotoxic drug. After 24 hours incubation, cells were washed and lysed before measuring luciferase activity. […] See FIG. 20a Method: ARE reporter cell line AREc23 was seeded into 96 well plates and treated with DMSO (control), Carmustine (100 μM), Carmustine+BTB09463 (5 μM) or Carmustine+Retinoic acid (5 μM) After 24 hours incubation, cells were washed and lysed before measuring luciferase activity. […] After 24 hours incubation, cells were washed and lysed before measuring luciferase activity. B. Modified repeat of experiment A, with cells being pretreated with L-buthionine-(SR)-sulfoximine (BSO), an inhibitor of enzymes in the glutathione synthesis pathway. After 24 hours incubation, cells were washed and lysed before measuring luciferase activity. […] Method: Caco-2 cells were treated for 24 hrs with DMSO (control), Carmustine (100 μM), Carmustine+BTB09463 (5 μM). After 24 hrs, cell lysates were prepared and Western blots to detect the levels of AKR1C. […] Method: MCF7 cells were treated for 24 hrs with DMSO (control; Lane 1), Sulforaphane (5 μM) (Lane 2), Carmustine (100 μM) (Lane 3), Carmustine+BTB09463 (5 μM) (Lane 5). (Lane 4 represents experimental conditions irrelevant to the application). After 24 hrs, cell lysates were prepared and Western blots to detect the levels of Nrf2, NQO1 and AKR1C proteins.

[7] = tested on: ARE-driven luciferase activity in AREc32 cells; assay: Induction of ARE-driven luciferase activity in stable AREc32 reporter cells; assay type: cell-based, human
[8] = tested on: ARE-green fluorescent protein (GFP) reporter HepG2 cell line; details: 90 μM tBHQ; HepG2/GFP-B; cited from earlier work
[9] = tested on: ARE reporter system in CHO cells; assay: Transient pGL-GSTA2.41bp-ARE luciferase reporter in CHO cells; details: 50 μM tBHQ
Protocol: (§2) The Dual-luciferase Reporter Assay System (Promega) was used to examine reporter gene activity in transiently transfected cells. Briefly, cells were seeded at a density of 2×10^5 cells/well in 24-well plates and grown in the appropriate medium. After overnight incubation, the cells were transiently transfected with various ARE-luciferase reporter plasmids. The plasmid pRL-TK, encoding Renilla luciferase was used to control for transfection efficiency. Transfections were performed using Lipofectamine 2000 Reagent (Lifer Technologies Inc. Ltd., Coventry, UK) according to the manufacture's instructions. Following transfection, the culture medium was replaced 24 h later with fresh growth medium containing 50 μM tBHQ (in a solution giving a final concentration of 0.1% v/v dimethyl sulfoxide (DMSO)), which was prepared immediately before each experiment. For control experiments, vehicle alone (0.1% v/v DMSO) was added to the growth medium. Cells were left for 24 h to respond to xenobiotics before being harvested and the firefly and Renilla luciferase activities in cell lysates were measured using a luminometer (Turner Designs Model TD-20/20, Promega) following addition of Luciferase Assay Reagent II (Promega). […] The relative luciferase activity was calculated by normalizing firefly luciferase activity to that of Renilla luciferase. […]

[10] = tested on: ARE reporter system in MCF7 cells; assay: Transient pGL-GSTA2.41bp-ARE luciferase reporter in MCF7 cells
Protocol: The Dual-luciferase Reporter Assay System (Promega) was used to examine reporter gene activity in transiently transfected cells. Briefly, cells were seeded at a density of 2×10^5 cells/well in 24-well plates and grown in the appropriate medium. After overnight incubation, the cells were transiently transfected with various ARE-luciferase reporter plasmids. The plasmid pRL-TK, encoding Renilla luciferase was used to control for transfection efficiency. Transfections were performed using Lipofectamine 2000 Reagent (Lifer Technologies Inc. Ltd., Coventry, UK) according to the manufacture's instructions. Following transfection, the culture medium was replaced 24 h later with fresh growth medium containing 50 μM tBHQ (in a solution giving a final concentration of 0.1% v/v dimethyl sulfoxide (DMSO)), which was prepared immediately before each experiment. For control experiments, vehicle alone (0.1% v/v DMSO) was added to the growth medium. Cells were left for 24 h to respond to xenobiotics before being harvested and the firefly and Renilla luciferase activities in cell lysates were measured using a luminometer (Turner Designs Model TD-20/20, Promega) following addition of Luciferase Assay Reagent II (Promega). After quenching the reaction, the Renilla luciferase reaction was initiated by adding Stop & Glo Reagent (Promega). The relative luciferase activity was calculated by normalizing firefly luciferase activity to that of Renilla luciferase.
In order to choose an appropriate cell system for the generation of a stable reporter cell line, pGL-GSTA2.41 bp-ARE was transfected into HepG2, MCF7, CHO, Hepa1 cells.

[11] = tested on: ARE reporter system in Hepa1 cells; assay: Transient pGL-GSTA2.41bp-ARE luciferase reporter in Hepa1 cells; details: 50 μM tBHQ
Protocol: as §2

[12] = tested on: ARE reporter system in HepG2 cells; assay: Transient pGL-GSTA2.41bp-ARE luciferase reporter in HepG2 cells; details: 50 μM tBHQ
Protocol: as §2

[13] = tested on: AKR1C mRNA in AREc32 cells; assay: AKR1C mRNA in AREc32 cells (TaqMan); details: 10 μM tBHQ, 24 h
[14] = Carmustine 100 μM + BTB09463 5 μM
[15] = HepG2 cells treated with DMSO set at 1

CC(=O)c1ccc(OCc2ccc(Cl)c(Cl)c2)cc1 [BTB09463, 1-{4-[(3,4-dichlorobenzyl)oxy]phenyl}ethan-1-one]
carmustine induction of AKR1C protein [1, 14]: attenuated | sulforaphane induction of AKR1C protein ([1]; sulforaphane 5 μM, BTB09463 5 μM or Retinoic acid 1 μM): dramatically reduced | IC50 (A549 cells): 52 µM | carmustine induction of AKR1C protein [2]: reproduced in LS174 cells | IC50 (MCF7 cells): 28 µM | reduction of sulforaphane-induced AKR1C1 mRNA [3]: 50% | sulforaphane-induced NQO1 mRNA expression [3]: reduced to basal levels | constitutive expression of AKR1C1 mRNA ([4]; BTB09463 1, 5, 20, 40 μmol/l or retinoids 0.050, 0.20, 0.50, 2.0 μmol/l): inhibited the constitutive expression of AKR1C1 in a concentration-dependent manner | constitutive mRNA levels of NQO1, GCLC and GCLM ([4]; BTB09463 1-40 μmol/l or retinoic acid 0.050-2.0 μmol/l): repressed the constitutive mRNA levels of NQO1, GCLC and GCLM in a concentration-dependent manner | suppression of tBHQ induction of luciferase ([5]; 50 μM tBHQ + 5 μM BTB09463, 24 h): approximately 65% | suppression of tBHQ-mediated induction of luciferase expression, by dosing regimen ([5]; BTB09463 2.5, 5 or 10 μM for 0, 24 or 48 hrs before 50 μM tBHQ): identical under each dosing regimen | carmustine-mediated induction of luciferase activity ([5]; Carmustine 100 μM + BTB09463 5 μM or Retinoic acid 5 μM, 24 hours): completely suppress | carmustine over expression of AKR1C and NQO1 protein [6, 14]: attenuated | sulforaphane-driven induction of NQO1 and AKR1C protein ([6]; sulforaphane 5 μM + BTB09463 5 μM): potently inhibited

CC(C)(C)c1cc(O)ccc1O [tBHQ, tert-butylhydroquinone]
increase of luciferase activity ([7]; 1 μM tBHQ, 24 h): 2 fold | increase of luciferase activity ([7]; 5 μM tBHQ, 24 h): 5 fold | lag phase before increase of luciferase activity ([7]; 10 μM tBHQ alone): approximately 3 hour | increase of luciferase activity ([7]; 10 μM tBHQ, 8 h): 4 fold | increase of luciferase activity ([7]; 10 μM tBHQ, 18 h): 10 fold | induction of luciferase activity ([7]; 10 μM tBHQ, 50 ng pRS-hNrf2 DNA per well (Nrf2 RNAi)): 8 fold | induction of luciferase activity ([7]; 10 μM tBHQ, 100 ng pRS-hNrf2 DNA per well (Nrf2 RNAi)): 6 fold | induction of luciferase activity ([7]; 10 μM tBHQ, control cells, no DNA in the transfection mix): 13 fold and 10 fold | inducible level of luciferase activity ([7]; 10 μM tBHQ, transfection with 50 ng pHyg-EF-hNrf2 per well): 19 fold | inducible level of luciferase activity ([7]; 10 μM tBHQ, transfection with 100 ng pHyg-EF-hNrf2): 25 fold | induction of luciferase expression compared to DMSO control ([7]; 50 μM tBHQ, 24 h): 14 fold | CD, concentration of inducting agent that doubled luciferase reporter activity ([7]; AREc32, 24 h, DMSO set at 1): 1 µM | maximal increase of GFP reporter [8]: 3 fold | Ratio (tBHQ/DMSO) [9]: 2.7 ± 0.1 | Relative luciferase activity (tBHQ treated) [9, 15]: 1171.6 ± 8.8 | Ratio (tBHQ/DMSO) ([10]; 50 μM tBHQ): 52.0 ± 11.9 | Relative luciferase activity (tBHQ treated) ([10]; 50 μM tBHQ, HepG2 cells treated with DMSO set at 1): 2276.1 ± 521.1 | induction of luciferase activity ([10]; overnight treatment with 50 μM tBHQ): up to 50 fold | Ratio (tBHQ/DMSO) [11]: 3.6 ± 0.5 | Relative luciferase activity (tBHQ treated) [11, 15]: 140.7 ± 19.6 | Ratio (tBHQ/DMSO) [12]: 2.8 ± 0.9 | Relative luciferase activity (tBHQ treated) [12, 15]: 2.8 ± 0.9 | induction of AKR1C1 mRNA [13]: approximately 15 fold
